This note sets out measurements from patent publication US12673041B2, “4-aminobut-2-enamide derivatives and salt thereof” (TAIHO PHARMACEUTICAL CO., LTD., priority 2019, dated 2026).

The target of assay [1] is Gppcp-bound recombinant K-Ras4B G12C mutant protein (amino acids 1-169, C51S/C80L/C118S) (Homo sapiens, UniProt P01116, C118S/C51S/C80L/G12C). Briefly: KRASG12C binding assay (LC-MS compound binding rate). Particulars: test compound final concentration 0.5 μM, 25° C., 1 hour. Put shortly:
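Gppcp-bound K-Ras4B G12C (aa 1-169, C51S/C80L/C118S) at 50 nM in 1×TBS, 0.1 mM TCEP, 0.25 mM MgCl2, 50 μM Gppcp was incubated 1 hour at 25° C with compound at 0.5 μM final. Intact-protein LC-MS gave binding rate as single-adduct signal over total KRAS signal, graded A (≥80%) to E (<20%).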

In assay [2] the target is T1, GMPPNP-bound KRAS G12C protein and cRAF RAS-binding domain (cRAF-RBD) (Homo sapiens, UniProt P01116, G12C).
T1 construct: made in house; host or cells: E. coli
Briefly: Inhibitory activity on interaction between KRAS G12C and cRAF (Alpha technology). It counts as biochemical. The note with it: GMPPNP-bound KRAS G12C incubated with compound at 25° C. for 1 hour, then cRAF-RBD, Alpha signal; read-out: IC50. Summed up: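 GMPPNP-loaded His-KRAS G12C (aa 1-169) preincubated 1 h at 25 °C with compound (pH 7.5 Tris, 1 mM MgCl2, TCEP, Tween 20), then cRAF-RBD (aa 50-132) and Alpha reagents added for 1.5 h at RT. Inhibition scaled between DMSO (0%) and GDP-bound KRAS (100%); IC50 by curve fitting.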

In another assay the test system is MIA PaCa-2 cells. The assay can be described thus: Growth inhibition activity on KRAS-G12C mutant cell line (MIA PaCa-2). It is filed as cell-based. Particulars: Homo sapiens, 72 h; MIA PaCa-2, 3-day culture, CellTiter-Glo 3D. As to the method:
MIA PaCa-2 cells (given by Sumitomo Dainippon Pharma Co., Ltd.), which are a KRAS-G12C mutant human pancreas cancer cell line, were suspended in a 10% fetal bovine serum-containing RPMI1640 medium (manufactured by Fujifilm Wako Pure Chemical Corporation.). The cell suspension was seeded into each well of a 384-well U bottom microplate and cultured in an incubator containing 5% CO2 gas at 37° C. for 1 day. The compounds obtained in the “Preparation of Compounds” section were used as test compounds and were dissolved in DMSO, respectively, and each test compound was diluted with DMSO to give a concentration 500 times the final concentration. The resultant solution of the test compound in DMSO was diluted with the medium used for suspending cells and added to each well of the cell-culture plate to give a DMSO final concentration of 0.2%, followed by culture in an incubator containing 5% CO2 gas at 37° C. for another 3 days. The cell count after 3-day culture in the presence of the test compound was measured using CellTiter-Glo 3D Reagent (manufactured by Promega Corporation). All wells were added with CellTiter-Glo 3D Reagent and mixed for 10 minutes. 30 minutes after mixing, luminescence was measured by a plate reader. The growth inhibition rate was calculated from the following equation, and the concentration of the test compound at which 50% inhibition was achieved (IC50 (nM)) was determined. […] Growth Inhibition Rate (%)=(C−T)/(C)×100 • T: the emission intensity in a well into which a test compound was added. • C: the emission intensity in a well into which a test compound was not added.

As to `CO[C@H]1CC[C@H](NC/C=C/C(=O)Nc2ccc(C(=O)c3ccc4c(-c5c(Cl)cc6c(ncn6C)c5Cl)cccn34)cc2C#N)CC1` (single isomer, unassigned) [Example 62, (E)-N-(2-cyano-4-(8-(4,6-dichloro-1-methyl-1H-benzo[d]imidazol-5-yl)indolizine-3-carbonyl)phenyl)-4-(((1r,4r)-4-methoxycyclohexyl)amino)but-2-enamide], the binding rate entry in assay [1] is on record as “A (A binding rate of 80% or more is rated “A”)”. The figures for the half-maximal inhibitory concentration (IC50) (in assay [2]; in the assay with MIA PaCa-2 cells) were 57 nM and 43 nM, respectively.

In the case of `CO[C@H]1CC[C@H](NC/C=C/C(=O)Nc2ccc(C(=O)Nc3cccc(-c4cc5nc6n(c5cc4C)CCC6)n3)cc2C#N)CC1` [Example 3, 3-cyano-4-((E)-4-(((1r,4r)-4-methoxycyclohexyl)amino)but-2-enamido)-N-(6-(7-methyl-2,3-dihydro-1H-benzo[d]pyrrolo[1,2-a]imidazol-6-yl)pyridin-2-yl)benzamide], in assay [1], the binding rate result is “B (a binding rate of 60% or more and less than 80% is rated “B”)”. Besides, the IC50 was found to be 50 nM in assay [2] and 83 nM in the assay with MIA PaCa-2 cells.

With `Cc1cc2c(cc1-c1cccn3c(C(=O)c4ccc(NC(=O)/C=C/CNC(C)(C)C)c(C#N)c4)ccc13)ncn2C` [Example 5, (E)-4-(tert-butylamino)-N-(2-cyano-4-(8-(1,6-dimethyl-1H-benzo[d]imidazol-5-yl)indolizine-3-carbonyl)phenyl)but-2-enamide], the binding rate entry in assay [1] was “A (A binding rate of 80% or more is rated “A”)”. Also, the IC50 in assay [2] is 29 nM; in the assay on MIA PaCa-2 cells, 80 nM.

`CO[C@H]1CC[C@H](NC/C=C/C(=O)Nc2ccc(C(=O)c3ccc4c(-c5cc6ncn(C)c6cc5C(F)(F)F)cccn34)cc2C#N)CC1` [Example 6, (E)-N-(2-cyano-4-(8-(1-methyl-6-(trifluoromethyl)-1H-benzo[d]imidazol-5-yl)indolizine-3-carbonyl)phenyl)-4-(((1r,4r)-4-methoxycyclohexyl)amino)but-2-enamide]: the binding rate result in assay [1] is “A (A binding rate of 80% or more is rated “A”)”. Also, the values for the half-inhibitory concentration (IC50) (in assay [2]; with MIA PaCa-2 cells) were 15 nM and 43 nM, respectively.

For the molecule `CO[C@H]1CC[C@H](NC/C=C/C(=O)Nc2ccc(C(=O)c3ccc4c(-c5cc6nc(C)n(C)c6cc5C(F)(F)F)cccn34)cc2C#N)CC1` [Example 7, (E)-N-(2-cyano-4-(8-(1,2-dimethyl-6-(trifluoromethyl)-1H-benzo[d]imidazol-5-yl)indolizine-3-carbonyl)phenyl)-4-(((1r,4r)-4-methoxycyclohexyl)amino)but-2-enamide], the binding rate result in assay [1] is on record as “A (A binding rate of 80% or more is rated “A”)”. For the same molecule, the IC50 turned out to be 35 nM in assay [2] and 49 nM in the assay with MIA PaCa-2 cells.

As for `CO[C@H]1CC[C@H](NC/C=C/C(=O)Nc2ccc(C(=O)c3c[nH]c4c(-c5cc6ncn(C)c6cc5C(F)(F)F)cccc34)cc2C#N)CC1` [Example 8, (E)-N-(2-cyano-4-(7-(1-methyl-6-(trifluoromethyl)-1H-benzo[d]imidazol-5-yl)-1H-indole-3-carbonyl)phenyl)-4-(((1r,4r)-4-methoxycyclohexyl)amino)but-2-enamide], in assay [1], the binding rate result was “A (A binding rate of 80% or more is rated “A”)”. The IC50 came out at 19 nM in assay [2] and 52 nM with MIA PaCa-2 cells.

As for `CO[C@H]1CC[C@H](NC/C=C/C(=O)Nc2ccc(C(=O)c3cnc4c(-c5cc6ncn(C)c6cc5C)cccn34)cc2C#N)CC1` [Example 9, (E)-N-(2-cyano-4-(8-(1,6-dimethyl-1H-benzo[d]imidazol-5-yl)imidazo[1,2-a]pyridine-3-carbonyl)phenyl)-4-(((1r,4r)-4-methoxycyclohexyl)amino)but-2-enamide], the binding rate entry in assay [1] is “B (a binding rate of 60% or more and less than 80% is rated “B”)”. Also, the IC50 was 66 nM in assay [2] and 100 nM in the assay with MIA PaCa-2 cells.

With `CO[C@H]1CC[C@H](NC/C=C/C(=O)Nc2ccc(C(=O)c3ccc4c(-c5c(Cl)ncn5C(C)C)cccn34)cc2C#N)CC1` [Example 74, (E)-N-(4-(8-(4-chloro-1-isopropyl-1H-imidazol-5-yl)indolizine-3-carbonyl)-2-cyanophenyl)-4-(((1r,4r)-4-methoxycyclohexyl)amino)but-2-enamide], in assay [1], the binding rate result was “B (a binding rate of 60% or more and less than 80% is rated “B”)”. Besides, in assay [2], the half-inhibitory concentration (IC50) was 170 nM.

As for `CO[C@H]1CC[C@H](NC/C=C/C(=O)Nc2ccc(C(=O)c3ccc4c(-c5cc6nn(C)cc6cc5C)cccn34)cc2C#N)CC1` [Example 75, (E)-N-(2-cyano-4-(8-(2,5-dimethyl-2H-indazol-6-yl)indolizine-3-carbonyl)phenyl)-4-(((1r,4r)-4-methoxycyclohexyl)amino)but-2-enamide], the binding rate entry in assay [1] is reported as “A (A binding rate of 80% or more is rated “A”)”. In assay [2], the IC50 stood at 150 nM.

`CO[C@H]1CC[C@H](NC/C=C/C(=O)Nc2ccc(C(=O)c3ccc4c(-c5cc6cn(C)nc6cc5C)cccn34)cc2C#N)CC1` [Example 76, (E)-N-(2-cyano-4-(8-(2,6-dimethyl-2H-indazol-5-yl)indolizine-3-carbonyl)phenyl)-4-(((1r,4r)-4-methoxycyclohexyl)amino)but-2-enamide]: the binding rate entry in assay [1] is listed as “A (A binding rate of 80% or more is rated “A”)”. Besides, the IC50 in assay [2] came to 130 nM.

As for `Cn1cnc2cc(-c3cccn4c(C(=O)c5ccc(NC(=O)/C=C/CNC(C)(C)C)c(Cl)c5)ccc34)c(C(F)(F)F)cc21` [Example 77, (E)-4-(tert-butylamino)-N-(2-chloro-4-(8-(1-methyl-6-(trifluoromethyl)-1H-benzo[d]imidazol-5-yl)indolizine-3-carbonyl)phenyl)but-2-enamide], the binding rate result in assay [1] was “C (a binding rate of 40% or more and less than 60% is rated “C”)”. Moreover, the IC50 in assay [2] was determined as 330 nM.

Regarding `CO[C@H]1CC[C@H](NC/C=C/C(=O)Nc2ccc(C(=O)c3ccc4c(-c5ccc6nn(C)c(Cl)c6c5Cl)cccn34)cc2C#N)CC1` [Example 79, (E)-N-(2-cyano-4-(8-(3,4-dichloro-2-methyl-2H-indazol-5-yl)indolizine-3-carbonyl)phenyl)-4-(((1r,4r)-4-methoxycyclohexyl)amino)but-2-enamide], the binding rate entry in assay [1] was “A (A binding rate of 80% or more is rated “A”)”. Further, in assay [2], the IC50 was determined as 440 nM.

`CO[C@H]1CC[C@H](NC/C=C/C(=O)Nc2ccc(C(=O)c3ccc4c(-c5c(C)cc6c(ncn6C)c5-c5cccnc5)cccn34)cc2C#N)CC1` [Example 82, (E)-N-(2-cyano-4-(8-(1,6-dimethyl-4-(pyridin-3-yl)-1H-benzo[d]imidazol-5-yl)indolizine-3-carbonyl)phenyl)-4-(((1r,4r)-4-methoxycyclohexyl)amino)but-2-enamide]: in assay [1], the binding rate result is recorded as “A (A binding rate of 80% or more is rated “A”)”. For the same molecule, the IC50 in assay [2] was 150 nM.

With `CO[C@H]1CC[C@H](NC/C=C/C(=O)Nc2ccc(C(=O)c3c[nH]c4c(-c5cc6ncn(C)c6cc5C(F)(F)F)cccc34)c(F)c2)CC1` [Example 83, (E)-N-(3-fluoro-4-(7-(1-methyl-6-(trifluoromethyl)-1H-benzo[d]imidazol-5-yl)-1H-indole-3-carbonyl)phenyl)-4-(((1r, 4r)-4-methoxycyclohexyl)amino)but-2-enamide], the binding rate entry in assay [1] is given as “A (A binding rate of 80% or more is rated “A”)”. Moreover, in assay [2], the half-inhibitory concentration (IC50) came out at 440 nM.
